Several values for one entry are separate records, joined by “and”; a condition that tells them apart may be missing. Equal values may be shown once. Toxic doses and inconclusive results are not listed. Cut-off read from the data, not from the text of the source: active = T/C of 150% or more; inactive = T/C below 125%.
Test system: L1210 leukemia ip in BDF1 mice, survival T/C
Assay: NCI In Vivo Anticancer Drug Screen. Data for tumor model L1210 Leukemia (intraperitoneal) in B6D2F1 (BDF1) mice
Settings: endpoint: mean survival time, higher = longer survival
In short: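 Tumor was transplanted into mice, which were then dosed with test compound or vehicle alone. Survival was recorded for each group, and the treated figure was expressed relative to the control figure.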

[1] = dose: 100.0 mg/kg/injection, schedule: Q04DX003 (ip), vehicle: Klucel (hydroxypropylcellulose) (HPC)
[2] = dose: 100.0 mg/kg/injection, schedule: Q01DX009 (ip), vehicle: saline with Tween-80
[3] = dose: 100.0 mg/kg/injection, schedule: Q04DX002 (ip), vehicle: saline with Tween-80
[4] = dose: 200.0 mg/kg/injection, schedule: Q01DX009 (ip), vehicle: saline with Tween-80
[5] = dose: 200.0 mg/kg/injection, schedule: Q04DX002 (ip), vehicle: saline with Tween-80
[6] = dose: 400.0 mg/kg/injection, schedule: Q01DX009 (ip), vehicle: saline with Tween-80
[7] = dose: 400.0 mg/kg/injection, schedule: Q04DX002 (ip), vehicle: saline with Tween-80
[8] = dose: 100.0 mg/kg/injection, schedule: Q01DX009 (ip), vehicle: Klucel (hydroxypropylcellulose) (HPC)

Measured: T/C

CC(C)(C)N1CC1C(=O)Sc1ccccc1 (configuration not stated)
inactive: dose: 25.0 mg/kg/injection, schedule: Q04DX003 (ip), vehicle: Klucel (hydroxypropylcellulose) (HPC) 102 % of control | dose: 50.0 mg/kg/injection, schedule: Q04DX003 (ip), vehicle: Klucel (hydroxypropylcellulose) (HPC) 101 % of control | [1] 109 % of control

COc1ccccc1NC(=O)Nc1ccc(S(N)(=O)=O)cc1
inactive: dose: 100.0 mg/kg/injection, schedule: Q01DX001 (ip), vehicle: saline with Tween-80 97 % of control | [2] 101 % of control and 106 % of control | [3] 98 % of control and 103 % of control | dose: 100.0 mg/kg/injection, schedule: Q04DX003 (ip), vehicle: saline with Tween-80 94 % of control | dose: 200.0 mg/kg/injection, schedule: Q01DX001 (ip), vehicle: saline with Tween-80 111 % of control | [4] 98 % of control and 116 % of control | [5] 104 % of control | dose: 200.0 mg/kg/injection, schedule: Q04DX003 (ip), vehicle: saline with Tween-80 90 % of control | dose: 400.0 mg/kg/injection, schedule: Q01DX001 (ip), vehicle: saline with Tween-80 97 % of control | [6] 97 % of control and 98 % of control | [7] 95 % of control | dose: 400.0 mg/kg/injection, schedule: Q04DX003 (ip), vehicle: saline with Tween-80 100 % of control

O=C(N/N=C/c1ccccc1Cl)C(O)C(O)C(O)C(O)CO (configuration not stated)
inactive: [3] 112 % of control | [5] 94 % of control | [7] 94 % of control

Nc1cc(C(F)(F)F)ccc1Cl
inactive: dose: 100.0 mg/kg/injection, schedule: Q04DX003 (ip), vehicle: alcohol 100 % of control | dose: 200.0 mg/kg/injection, schedule: Q04DX003 (ip), vehicle: alcohol 96 % of control | dose: 400.0 mg/kg/injection, schedule: Q04DX003 (ip), vehicle: alcohol 97 % of control

CSc1nc(N)nc2ncc(CN(C)c3ccc(C(=O)O)cc3)nc12
inactive: dose: 8.0 mg/kg/injection, schedule: Q01DX009 (ip), vehicle: DMSO 100 % of control | dose: 12.0 mg/kg/injection, schedule: Q01DX009 (ip), vehicle: DMSO 98 % of control | dose: 18.0 mg/kg/injection, schedule: Q01DX009 (ip), vehicle: DMSO 100 % of control | dose: 25.0 mg/kg/injection, schedule: Q01DX009 (ip), vehicle: DMSO 88 % of control | dose: 50.0 mg/kg/injection, schedule: Q01DX001 (ip), vehicle: DMSO 91 % of control

NC(=O)C(NC(=O)c1ccccc1)SCc1ccccc1 (configuration not stated)
inactive: dose: 25.0 mg/kg/injection, schedule: Q04DX002 (ip), vehicle: Klucel (hydroxypropylcellulose) (HPC) 98 % of control | dose: 50.0 mg/kg/injection, schedule: Q04DX002 (ip), vehicle: Klucel (hydroxypropylcellulose) (HPC) 95 % of control | dose: 100.0 mg/kg/injection, schedule: Q04DX002 (ip), vehicle: Klucel (hydroxypropylcellulose) (HPC) 95 % of control

C#CC1(O)CCCCC1
inactive: [8] 108 % of control | [1] 94 % of control | dose: 200.0 mg/kg/injection, schedule: Q01DX009 (ip), vehicle: Klucel (hydroxypropylcellulose) (HPC) 97 % of control | dose: 200.0 mg/kg/injection, schedule: Q04DX003 (ip), vehicle: Klucel (hydroxypropylcellulose) (HPC) 100 % of control | dose: 400.0 mg/kg/injection, schedule: Q01DX009 (ip), vehicle: Klucel (hydroxypropylcellulose) (HPC) 97 % of control | dose: 400.0 mg/kg/injection, schedule: Q04DX003 (ip), vehicle: Klucel (hydroxypropylcellulose) (HPC) 96 % of control

O=C1[O][Hg][c]2c1cccc2[N+](=O)[O-]
inactive: dose: 2.5 mg/kg/injection, schedule: Q01DX009 (ip), vehicle: Klucel (hydroxypropylcellulose) (HPC) 92 % of control | dose: 2.5 mg/kg/injection, schedule: Q04DX003 (ip), vehicle: Klucel (hydroxypropylcellulose) (HPC) 89 % of control | dose: 5.0 mg/kg/injection, schedule: Q01DX009 (ip), vehicle: Klucel (hydroxypropylcellulose) (HPC) 90 % of control | dose: 5.0 mg/kg/injection, schedule: Q04DX003 (ip), vehicle: Klucel (hydroxypropylcellulose) (HPC) 88 % of control | dose: 10.0 mg/kg/injection, schedule: Q01DX009 (ip), vehicle: Klucel (hydroxypropylcellulose) (HPC) 92 % of control | dose: 10.0 mg/kg/injection, schedule: Q04DX003 (ip), vehicle: Klucel (hydroxypropylcellulose) (HPC) 93 % of control and 96 % of control | dose: 20.0 mg/kg/injection, schedule: Q04DX003 (ip), vehicle: Klucel (hydroxypropylcellulose) (HPC) 98 % of control

O=[N+]([O-])c1ccc2n[nH]c(Cl)c2c1
inactive: dose: 100.0 mg/kg/injection, schedule: Q01DX001 (ip), vehicle: saline 95 % of control | dose: 200.0 mg/kg/injection, schedule: Q01DX001 (ip), vehicle: saline 95 % of control | dose: 400.0 mg/kg/injection, schedule: Q01DX001 (ip), vehicle: saline 94 % of control

O=C1CCOc2ccccc21
inactive: dose: 100.0 mg/kg/injection, schedule: Q04DX002 (ip), vehicle: other 87 % of control | dose: 200.0 mg/kg/injection, schedule: Q04DX002 (ip), vehicle: other 90 % of control | dose: 400.0 mg/kg/injection, schedule: Q04DX002 (ip), vehicle: other 94 % of control

O=c1oc2ccccc2c(O)c1Oc1ccccc1
inactive: dose: 100.0 mg/kg/injection, schedule: Q04DX003 (ip), vehicle: saline 98 % of control | dose: 200.0 mg/kg/injection, schedule: Q04DX003 (ip), vehicle: saline 91 % of control | dose: 400.0 mg/kg/injection, schedule: Q04DX003 (ip), vehicle: saline 87 % of control

CN1C=CC(C(C(N)=O)c2ccccc2)c2ccccc21 (configuration not stated)
inactive: [2] 95 % of control | [4] 92 % of control | [6] 92 % of control

COc1ccc2ccccc2c1C1NC(=O)c2ccccc2N1 (configuration not stated)
inactive: dose: 50.0 mg/kg/injection, schedule: Q01DX009 (ip), vehicle: Klucel (hydroxypropylcellulose) (HPC) 97 % of control | [8] 97 % of control | dose: 150.0 mg/kg/injection, schedule: Q01DX009 (ip), vehicle: Klucel (hydroxypropylcellulose) (HPC) 92 % of control

— PubChem BioAssay AID248 (DTP/NCI, 2004)
